Blank lines part the entries; values can stand above or below the compound they belong to. The source made the active and inactive calls.
How the values were obtained:
Cytochrome P450 2C9 [1] = molecular target: T1, Cytochrome P450 2C9 (Homo sapiens, UniProt P11712); details: Potency
[2] = molecular target: T2, Neuropeptides B/W receptor type 1 (Homo sapiens, UniProt P48145); experiment: Fluorescence-based dose response cell-based high throughput screening assay to identify antagonists of the G-protein coupled receptor 7 (GPR7). [Related pubchem assays: 1952 (Screening assay (GPR7 antagonists).), 1880 (Summary AID.)]; type: functional
T2 sequence (P48145 whole entry): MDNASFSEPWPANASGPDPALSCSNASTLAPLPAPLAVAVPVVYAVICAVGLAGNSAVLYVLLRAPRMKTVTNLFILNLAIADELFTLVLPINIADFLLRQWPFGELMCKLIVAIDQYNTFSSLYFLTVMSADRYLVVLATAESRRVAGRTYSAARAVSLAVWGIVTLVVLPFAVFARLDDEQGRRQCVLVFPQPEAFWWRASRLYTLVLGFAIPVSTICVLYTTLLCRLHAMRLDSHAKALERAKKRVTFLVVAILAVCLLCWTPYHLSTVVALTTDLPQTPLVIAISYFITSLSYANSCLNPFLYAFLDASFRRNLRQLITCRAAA

[3] = molecular target: Melanin-concentrating hormone receptor 1 (Homo sapiens, UniProt Q99705); experiment: Fluorescence-based counterscreen for antagonists of the G-protein coupled receptor 7 (GPR7): cell-based high throughput dose response assay to identify antagonists of the melanin-concentrating hormone receptor 1 (MCHR1).; type: functional
[4] = molecular target: T3, Corticotropin-releasing factor receptor 2/Corticotropin-releasing factor-binding protein (Homo sapiens, UniProt P24387+Q13324); experiment: activators of CRF receptor 2 with binding protein – uHTS hits, confirmation (AID 602473); type: functional; details: read-out: EC50_Mean
T3 sequence (Q13324 whole entry): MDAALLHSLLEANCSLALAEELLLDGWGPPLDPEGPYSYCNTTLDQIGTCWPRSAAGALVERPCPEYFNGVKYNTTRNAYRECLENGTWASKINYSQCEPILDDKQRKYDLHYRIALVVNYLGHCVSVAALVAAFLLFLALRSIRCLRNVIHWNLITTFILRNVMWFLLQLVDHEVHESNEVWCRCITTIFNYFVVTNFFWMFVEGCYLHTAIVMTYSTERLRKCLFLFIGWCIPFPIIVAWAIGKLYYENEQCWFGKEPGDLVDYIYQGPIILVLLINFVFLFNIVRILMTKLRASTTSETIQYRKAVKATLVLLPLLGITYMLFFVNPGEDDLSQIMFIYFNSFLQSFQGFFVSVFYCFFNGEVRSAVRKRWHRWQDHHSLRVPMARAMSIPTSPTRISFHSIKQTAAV
T3 sequence (P24387 whole entry): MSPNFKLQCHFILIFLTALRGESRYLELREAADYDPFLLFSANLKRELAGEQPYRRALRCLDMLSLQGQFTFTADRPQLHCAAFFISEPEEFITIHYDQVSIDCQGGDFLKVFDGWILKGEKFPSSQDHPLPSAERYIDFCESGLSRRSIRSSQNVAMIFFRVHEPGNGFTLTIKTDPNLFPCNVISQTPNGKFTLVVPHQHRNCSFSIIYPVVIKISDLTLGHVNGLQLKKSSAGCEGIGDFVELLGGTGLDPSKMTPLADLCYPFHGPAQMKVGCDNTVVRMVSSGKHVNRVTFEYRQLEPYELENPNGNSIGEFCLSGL

[5] = molecular target: T4, Alkaline phosphatase, tissue-nonspecific isozyme (Homo sapiens, UniProt P05186)
T4 sequence (P05186 whole entry): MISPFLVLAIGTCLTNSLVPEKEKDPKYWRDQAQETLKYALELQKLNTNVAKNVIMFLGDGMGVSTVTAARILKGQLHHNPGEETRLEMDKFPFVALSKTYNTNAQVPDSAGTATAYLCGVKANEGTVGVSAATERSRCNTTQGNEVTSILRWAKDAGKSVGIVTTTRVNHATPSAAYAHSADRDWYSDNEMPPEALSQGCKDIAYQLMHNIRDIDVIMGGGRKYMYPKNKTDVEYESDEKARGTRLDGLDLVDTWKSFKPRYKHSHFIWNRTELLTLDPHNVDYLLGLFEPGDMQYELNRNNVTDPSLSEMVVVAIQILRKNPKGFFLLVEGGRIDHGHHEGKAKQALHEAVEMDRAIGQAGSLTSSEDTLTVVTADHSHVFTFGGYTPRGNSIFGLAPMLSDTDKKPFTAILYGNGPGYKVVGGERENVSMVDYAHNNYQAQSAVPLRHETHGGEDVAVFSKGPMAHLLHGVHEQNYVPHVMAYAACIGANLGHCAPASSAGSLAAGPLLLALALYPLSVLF

Cytochrome P450 2D6 [6] = molecular target: T5, Cytochrome P450 2D6 (Homo sapiens, UniProt P10635)
Cytochrome P450 2C9 [7] = molecular target: T1, Cytochrome P450 2C9
Cytochrome P450 2D6 [8] = molecular target: T5, Cytochrome P450 2D6; experiment: qHTS Assay for Inhibitors and Substrates of Cytochrome P450 2D6. [Related pubchem assays: 410 ]; type: ADME; details: read-out: Potency

T1 sequence (P11712 whole entry): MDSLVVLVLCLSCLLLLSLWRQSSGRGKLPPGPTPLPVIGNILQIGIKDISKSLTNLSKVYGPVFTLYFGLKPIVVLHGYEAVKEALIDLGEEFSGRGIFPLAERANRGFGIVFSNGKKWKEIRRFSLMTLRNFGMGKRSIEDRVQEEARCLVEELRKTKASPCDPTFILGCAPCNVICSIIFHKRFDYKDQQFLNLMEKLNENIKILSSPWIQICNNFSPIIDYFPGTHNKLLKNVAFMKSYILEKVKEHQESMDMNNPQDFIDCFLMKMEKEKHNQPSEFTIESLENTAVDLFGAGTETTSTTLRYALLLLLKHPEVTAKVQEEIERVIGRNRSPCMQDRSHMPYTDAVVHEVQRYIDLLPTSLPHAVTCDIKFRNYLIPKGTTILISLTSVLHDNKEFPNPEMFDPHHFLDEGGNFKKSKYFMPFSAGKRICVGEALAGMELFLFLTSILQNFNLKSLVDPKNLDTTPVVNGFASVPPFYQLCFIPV
T5 sequence (P10635 whole entry): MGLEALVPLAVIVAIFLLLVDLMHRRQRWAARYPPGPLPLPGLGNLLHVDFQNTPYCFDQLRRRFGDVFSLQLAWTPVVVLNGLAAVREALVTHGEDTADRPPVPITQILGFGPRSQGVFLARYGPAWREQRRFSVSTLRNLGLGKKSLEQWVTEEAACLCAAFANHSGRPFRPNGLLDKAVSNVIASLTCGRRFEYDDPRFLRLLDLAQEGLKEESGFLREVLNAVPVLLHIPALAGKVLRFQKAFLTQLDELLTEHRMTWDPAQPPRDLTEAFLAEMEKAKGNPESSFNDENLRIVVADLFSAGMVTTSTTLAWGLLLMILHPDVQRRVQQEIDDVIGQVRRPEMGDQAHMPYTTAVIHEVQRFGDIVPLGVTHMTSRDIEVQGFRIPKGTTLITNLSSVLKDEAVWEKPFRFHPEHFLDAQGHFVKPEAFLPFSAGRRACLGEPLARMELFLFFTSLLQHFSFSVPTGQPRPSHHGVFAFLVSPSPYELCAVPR
Melanin-concentrating hormone receptor 1, sequence (Q99705 whole entry): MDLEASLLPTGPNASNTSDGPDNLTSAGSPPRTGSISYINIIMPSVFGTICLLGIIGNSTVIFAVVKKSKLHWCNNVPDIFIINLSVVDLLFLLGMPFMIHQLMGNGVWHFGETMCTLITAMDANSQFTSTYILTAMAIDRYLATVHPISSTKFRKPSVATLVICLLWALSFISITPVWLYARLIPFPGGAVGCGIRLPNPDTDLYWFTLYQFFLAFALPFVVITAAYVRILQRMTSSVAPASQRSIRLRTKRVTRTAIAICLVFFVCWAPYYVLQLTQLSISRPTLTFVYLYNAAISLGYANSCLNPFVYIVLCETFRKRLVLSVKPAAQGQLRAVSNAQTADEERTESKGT

AC50 (Cytochrome P450 2C9 [1]): 25.1 µM (inconclusive)
Compound: CCC[C@@H]1O[C@@H]2C[C@@H]3[C@@H]4CCC5=CC(=O)C=C[C@@]5(C)[C@H]4[C@H](O)C[C@@]3(C)[C@@]2(C(=O)CO)O1

IC50 [2]: 6.65 µM (active)
IC50 [3]: 13.3 µM (not active)
EC50 [4]: 9.75 µM (active)
Compound: Cc1cccc(NC(=S)NC(=O)Cc2ccccc2)c1C

EC50 [5]: > 100 µM (not active)
AC50 (Cytochrome P450 2D6 [6]): 14.1 µM (inconclusive)
AC50 (Cytochrome P450 2C9 [7]): inconclusive
Compound: CCN=C(S)NNC(=O)CCn1c2ccccc2c2ccccc21

AC50 (Cytochrome P450 2D6 [8]): 25.1 µM (inconclusive)
Compound: O=c1cc(-c2ccccc2O)oc2cc(O)cc(O)c12

Reference: ChEMBL document CHEMBL1201862, “PubChem BioAssay data set” (2004)
